Assay results: patent US20210253557A1, “SUBSTITUTED TRIAZOLE DERIVATIVES AND USES THEREOF” (Bayer Pharma Aktiengesellschaft, priority 2017, published 2021)
pIC50: −log10 of the molar value. Structures can show the parent of a compound that is named as a salt.

Legend:
human V2 receptor = target: T1, human V2 receptor (Homo sapiens, UniProt P30518); test: Cellular in vitro assay for determining vasopressin receptor activity (V2, CRE-luciferase); format: cell-based; conditions: CHO cell line transfected with the human V2 receptor; [Arg8]-vasopressin at EC50 concentration; read-out: IC50 hV2
T1 construct: expressed in transfected cells; host or cells: CHO K1 (ATCC) expressing firefly luciferase under a CRE-responsive promoter
Procedure, shortened: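 Antagonism was measured as inhibition of a 3-h, EC50-level [Arg8]-vasopressin stimulation, with compounds tested at several concentrations, yielding IC50 values. The read-out was cAMP-driven CRE-luciferase luminescence after lysis, in recombinant CHO K1 cells carrying human V2 receptor. Cells were seeded in 2% FCS DMEM/F12 one day earlier.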

human V1a receptor = target: T2, human V1a receptor (Homo sapiens, UniProt P37288); test: Cellular in vitro assay for determining vasopressin receptor activity (V1a, aequorin luminescence); format: cell-based; conditions: for pIC50: CHO cell line transfected with the human V1a receptor, [Arg8]-vasopressin at EC50 concentration, read-out: IC50 hV1a; for ratio IC50 hV2/hV1a: selectivity ratio of IC50 hV2 to IC50 hV1a
T2 construct: expressed in transfected cells; host or cells: CHO K1 (ATCC), also stably transfected with a modified aequorin
T2 sequence (P37288 whole entry): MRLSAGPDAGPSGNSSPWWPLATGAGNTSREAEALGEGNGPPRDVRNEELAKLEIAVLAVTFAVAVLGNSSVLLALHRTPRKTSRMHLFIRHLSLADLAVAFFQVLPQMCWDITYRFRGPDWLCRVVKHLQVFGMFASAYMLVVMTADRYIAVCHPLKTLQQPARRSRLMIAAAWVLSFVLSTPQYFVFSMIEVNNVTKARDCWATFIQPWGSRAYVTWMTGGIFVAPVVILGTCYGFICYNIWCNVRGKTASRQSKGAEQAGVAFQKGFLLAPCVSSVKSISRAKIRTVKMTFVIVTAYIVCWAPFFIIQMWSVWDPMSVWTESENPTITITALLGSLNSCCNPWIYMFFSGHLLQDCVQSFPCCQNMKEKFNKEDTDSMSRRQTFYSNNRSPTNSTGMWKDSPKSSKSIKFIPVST

T1 sequence (P30518 whole entry): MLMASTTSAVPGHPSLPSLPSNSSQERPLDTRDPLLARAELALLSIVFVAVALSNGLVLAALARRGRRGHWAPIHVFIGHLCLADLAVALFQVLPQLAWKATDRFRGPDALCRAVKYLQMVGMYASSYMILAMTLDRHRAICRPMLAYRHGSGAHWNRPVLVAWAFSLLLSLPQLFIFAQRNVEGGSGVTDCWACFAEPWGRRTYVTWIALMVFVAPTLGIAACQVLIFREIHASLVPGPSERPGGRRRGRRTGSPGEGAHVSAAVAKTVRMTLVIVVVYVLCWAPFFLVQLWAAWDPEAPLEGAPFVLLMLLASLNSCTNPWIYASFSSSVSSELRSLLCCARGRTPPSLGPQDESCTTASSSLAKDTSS

Question: `CCNC(=O)OCc1nc(Cn2nc(-c3ccc(Cl)cc3)n(C[C@H](O)C(F)(F)F)c2=O)nn1-c1ccccc1C(F)(F)F` [Example 49, {3-({3-(4-Chlorophenyl)-5-oxo-4-[(2S)-3,3,3-trifluoro-2-hydroxypropyl]-4,5-dihydro-1H-1,2,4-triazol-1-yl}methyl)-1-[2-(trifluoromethyl)phenyl]-1H-1,2,4-triazol-5-yl}methyl ethylcarbamate] was tested. Which pIC50 (human V2 receptor) did it give?
Answer: Its pIC50 is 7.78.

Question: What about the pIC50 (human V1a receptor) of the same compound?
Answer: Its pIC50 is 9.00.

Question: What about the “ratio IC50 hV2/hV1a” value (human V1a receptor) of the same compound?
Answer: Its value is 16.9.

Question: How did the pIC50 (human V2 receptor) turn out when `CCNC(=O)OCc1nc(Cn2nc(-c3ccc(Cl)cc3)n(C[C@H](OC(=O)NCC)C(F)(F)F)c2=O)nn1-c1ccccc1C(F)(F)F` [Example 50, (2S)-3-{3-(4-Chlorophenyl)-1-[(5-{[(ethylcarbamoyl)oxy]methyl}-1-[2-(trifluoromethyl)phenyl]-1H-1,2,4-triazol-3-yl)methyl]-5-oxo-1,5-dihydro-4H-1,2,4-triazol-4-yl}-1,1,1-trifluoropropan-2-yl ethylcarbamate] was run?
Answer: Its pIC50 is 7.66.

Question: And the pIC50 (human V1a receptor)?
Answer: Its pIC50 is 9.02.

Question: And the “ratio IC50 hV2/hV1a” value (human V1a receptor)?
Answer: The value was 23.0.

Question: `COCCNC(=O)OCc1nc(Cn2nc(-c3ccc(Cl)cc3)n(C[C@H](O)C(F)(F)F)c2=O)nn1-c1ccccc1C(F)(F)F` [Example 51, {3-({3-(4-Chlorophenyl)-5-oxo-4-[(2S)-3,3,3-trifluoro-2-hydroxypropyl]-4,5-dihydro-1H-1,2,4-triazol-1-yl}methyl)-1-[2-(trifluoromethyl)phenyl]-1H-1,2,4-triazol-5-yl}methyl (2-methoxyethyl)-carbamate] was tested. Which pIC50 (human V2 receptor) did it give?
Answer: Its pIC50 is 7.53.

Question: And the pIC50 (human V1a receptor)?
Answer: Its pIC50 is 8.41.

Question: What about the “ratio IC50 hV2/hV1a” value (human V1a receptor) of the same compound?
Answer: The value was 7.6.

Question: What does the source list for `NC(=O)OCc1nc(Cn2nc(-c3ccc(Cl)cc3)n(C[C@H](O)C(F)(F)F)c2=O)nn1-c1ccccc1C(F)(F)F` [Example 52, {3-({3-(4-Chlorophenyl)-5-oxo-4-[(2S)-3,3,3-trifluoro-2-hydroxypropyl]-4,5-dihydro-1H-1,2,4-triazol-1-yl}methyl)-1-[2-(trifluoromethyl)phenyl]-1H-1,2,4-triazol-5-yl}methyl Carbamate]?
Answer: pIC50 (human V2 receptor): 7.85; pIC50 (human V1a receptor): 8.67; ratio IC50 hV2/hV1a (human V1a receptor): 6.5

Question: Which results are given for `C[C@H](NC(=O)OC(C)(C)C)c1nc(Cn2nc(-c3ccc(Cl)cc3)n(C[C@H](O)C(F)(F)F)c2=O)nn1-c1cccc(Cl)c1` [Example 56, tert-Butyl {(1S)-1-[1-(3-chlorophenyl)-3-({3-(4-chlorophenyl)-5-oxo-4-[(2S)-3,3,3-trifluoro-2-hydroxypropyl]-4,5-dihydro-1H-1,2,4-triazol-1-yl}methyl)-1H-1,2,4-triazol-5-yl]ethyl}Carbamate]?
Answer: pIC50 (human V2 receptor): 7.48; pIC50 (human V1a receptor): 6.54; ratio IC50 hV2/hV1a (human V1a receptor): 0.1

Question: With `C[C@H](N)c1nc(Cn2nc(-c3ccc(Cl)cc3)n(C[C@H](O)C(F)(F)F)c2=O)nn1-c1cccc(Cl)c1` [Example 57, 2-({5-[(1S)-1-Aminoethyl]-1-(3-chlorophenyl)-1H-1,2,4-triazol-3-yl}methyl)-5-(4-chlorophenyl)-4-[(2S)-3,3,3-trifluoro-2-hydroxypropyl]-2,4-dihydro-3H-1,2,4-triazol-3-one hydrochloride] as the compound, how does the pIC50 (human V2 receptor) read?
Answer: The pIC50 was 8.89.

Question: And the pIC50 (human V1a receptor)?
Answer: The pIC50 was 7.88.

Question: What about the “ratio IC50 hV2/hV1a” value (human V1a receptor) of the same compound?
Answer: The value was 0.1.

Question: What does the source list for `COC(=O)N[C@@H](C)c1nc(Cn2nc(-c3ccc(Cl)cc3)n(C[C@H](O)C(F)(F)F)c2=O)nn1-c1cccc(Cl)c1` [Example 58, Methyl {(1S)-1-[1-(3-chlorophenyl)-3-({3-(4-chlorophenyl)-5-oxo-4-[(2S)-3,3,3-trifluoro-2-hydroxypropyl]-4,5-dihydro-1H-1,2,4-triazol-1-yl}methyl)-1H-1,2,4-triazol-5-yl]ethyl}Carbamate]?
Answer: pIC50 (human V2 receptor): 8.71; pIC50 (human V1a receptor): 7.67; ratio IC50 hV2/hV1a (human V1a receptor): 0.1

Question: With `NC1(c2nc(Cn3nc(-c4ccc(Cl)cc4)n(C[C@H](O)C(F)(F)F)c3=O)nn2-c2ccccc2Cl)CC1` [Example 76, 2-{[5-(1-Aminocyclopropyl)-1-(2-chlorophenyl)-1H-1,2,4-triazol-3-yl]methyl}-5-(4-chlorophenyl)-4-[(2S)-3,3,3-trifluoro-2-hydroxypropyl]-2,4-dihydro-3H-1,2,4-triazol-3-one hydrochloride] as the compound, how does the pIC50 (human V2 receptor) read?
Answer: The pIC50 was 8.40.

Question: What about the pIC50 (human V1a receptor) of the same compound?
Answer: The pIC50 was 9.32.

Question: What about the “ratio IC50 hV2/hV1a” value (human V1a receptor) of the same compound?
Answer: Its value is 8.3.

Question: With `CC(=O)NC1(c2nc(Cn3nc(-c4ccc(Cl)cc4)n(C[C@H](O)C(F)(F)F)c3=O)nn2-c2ccccc2Cl)CC1` [Example 77, N-{1-[1-(2-Chlorophenyl)-3-({3-(4-chlorophenyl)-5-oxo-4-[(2S)-3,3,3-trifluoro-2-hydroxypropyl]-4,5-dihydro-1H-1,2,4-triazol-1-yl}methyl)-1H-1,2,4-triazol-5-yl]cyclopropyl}acetamide] as the compound, how does the pIC50 (human V2 receptor) read?
Answer: Its pIC50 is 6.47.

Question: And the pIC50 (human V1a receptor)?
Answer: The pIC50 was 8.19.

Question: What about the “ratio IC50 hV2/hV1a” value (human V1a receptor) of the same compound?
Answer: The value was 52.3.

Question: How did the pIC50 (human V2 receptor) turn out when `CS(=O)(=O)NC1(c2nc(Cn3nc(-c4ccc(Cl)cc4)n(C[C@H](O)C(F)(F)F)c3=O)nn2-c2ccccc2Cl)CC1` [Example 78, N-{1-[1-(2-Chlorophenyl)-3-({3-(4-chlorophenyl)-5-oxo-4-[(2S)-3,3,3-trifluoro-2-hydroxypropyl]-4,5-dihydro-1H-1,2,4-triazol-1-yl}methyl)-1H-1,2,4-triazol-5-yl]cyclopropyl}methane sulfonamide] was run?
Answer: The pIC50 was 8.01.

Question: What about the pIC50 (human V1a receptor) of the same compound?
Answer: The pIC50 was 8.96.

Question: And the “ratio IC50 hV2/hV1a” value (human V1a receptor)?
Answer: The value was 8.8.

Question: How did the pIC50 (human V2 receptor) turn out when `CN(C)C1(c2nc(Cn3nc(-c4ccc(Cl)cc4)n(C[C@H](O)C(F)(F)F)c3=O)nn2-c2ccccc2Cl)CC1` [Example 79, 5-(4-Chlorophenyl)-2-({1-(2-chlorophenyl)-5-[1-(dimethylamino)cyclopropyl]-1H-1,2,4-triazol-3-yl}methyl)-4-[(2S)-3,3,3-trifluoro-2-hydroxypropyl]-2,4-dihydro-3H-1,2,4-triazol-3-one] was run?
Answer: Its pIC50 is 7.84.

Question: And the pIC50 (human V1a receptor)?
Answer: Its pIC50 is 9.00.

Question: What about the “ratio IC50 hV2/hV1a” value (human V1a receptor) of the same compound?
Answer: Its value is 14.5.

Question: How did the pIC50 (human V2 receptor) turn out when `O=C1CC[C@H](c2nc(Cn3nc(-c4ccc(Cl)cc4)n(C[C@H](O)C(F)(F)F)c3=O)nn2-c2ccccc2Cl)N1` [Example 101, 5-(4-Chlorophenyl)-2-({1-(2-chlorophenyl)-5-[(2R)-5-oxopyrrolidin-2-yl]-1H-1,2,4-triazol-3-yl}methyl)-4-[(2S)-3,3,3-trifluoro-2-hydroxypropyl]-2,4-dihydro-3H-1,2,4-triazol-3-one] was run?
Answer: The pIC50 was 8.42.

Question: And the pIC50 (human V1a receptor)?
Answer: Its pIC50 is 9.11.

Question: And the “ratio IC50 hV2/hV1a” value (human V1a receptor)?
Answer: Its value is 4.9.

Question: Which results are given for `O=C1CC[C@@H](c2nc(Cn3nc(-c4ccc(Cl)cc4)n(C[C@H](O)C(F)(F)F)c3=O)nn2-c2ccccc2Cl)N1` [Example 102, 5-(4-Chlorophenyl)-2-({1-(2-chlorophenyl)-5-[(2S)-5-oxopyrrolidin-2-yl]-1H-1,2,4-triazol-3-yl}methyl)-4-[(2S)-3,3,3-trifluoro-2-hydroxypropyl]-2,4-dihydro-3H-1,2,4-triazol-3-one]?
Answer: pIC50 (human V2 receptor): 8.92; pIC50 (human V1a receptor): 9.60; ratio IC50 hV2/hV1a (human V1a receptor): 4.8

Question: Which results are given for `O=C1CC[C@@H](c2nc(Cn3nc(-c4ccc(Cl)cc4)n(C[C@H](O)C(F)(F)F)c3=O)nn2-c2cnccc2Cl)N1` [Example 123, 5-(4-Chlorophenyl)-2-({1-(4-chloropyridin-3-yl)-5-[(2S)-5-oxopyrrolidin-2-yl]-1H-1,2,4-triazol-3-yl}methyl)-4-[(2S)-3,3,3-trifluoro-2-hydroxypropyl]-2,4-dihydro-3H-1,2,4-triazol-3-one]?
Answer: pIC50 (human V2 receptor): 7.46; pIC50 (human V1a receptor): 8.96; ratio IC50 hV2/hV1a (human V1a receptor): 31.5
